Where a SMILES comes first, the peptide text is derived from it. [ ]: non-standard residue; d: D form. Sar = CNCC(=O)O
Tests used:
[1] = test system: parakeratosis and skin roughness caused by oleic acid on the back of hairless mice; assay: Parakeratosis inhibition effect test: oleic acid applied to the back of hairless mice, visual skin roughness and parakeratosis level; assay type: in vivo, hairless mice (HR-1); set-up: key to Evaluation Visual (mean of 4 mice), skin roughness: 0.0 = no roughness, 2.0 = control application; 0.25 steps; conditions: for Evaluation Parakeratosis (mean of 4 mice): control 2.0; for Evaluation Visual (mean of 4 mice), skin roughness: score 0.0 no roughness, 2.0 control; for effect of inhibiting parakeratosis (conclusion from Table 4) / effect of inhibiting parakeratosis (conclusion from Table 1): hairless mice, oleic acid; for effect of inhibiting parakeratosis (conclusion from Table 4): fourth embodiment; for effect of inhibiting parakeratosis (conclusion from Table 1): first embodiment
Protocol: A 3 weight % water solution (including 30 weight % ethanol) was prepared as the evaluation specimen of the glycine derivatives in accordance with the invention 1. The pH was regulated to the range between 7.0 to 7.5, by using hydrochloric acid and sodium hydroxide. When the solubility was low, the solution was adjusted accordingly.
100 microliters of 10 weight % oleic acid (solvent: ethanol) was applied to the back of hairless mice (HR-1, Hoshino laboratory animals). Thereafter, 100 microliters of sample solution was applied (glycine derivatives in accordance with said invention 1) at each time. This procedure was repeated for 3 days. The day after the application, the skin condition of the backs was observed by using a CCD camera to evaluate the skin roughness (stratified ablation of the skin surface stratum corneum and red spots). The skin condition was evaluated visually, with scoring the skin condition of control application to 2.0 and the skin condition of no roughness to 0.0, in a 0.25 point step in response to the skin condition. At the same time, the skin surface stratum corneum of the back of hairless mice was peeled off by using a tape for staining the nucleus with haematoxylin to observe the degrees of parakeratosis (parakeratosis level) and evaluate in 0.25 step in the range from 1.0 to 3.0. The higher evaluation points indicates the larger number of parakeratotic corneocytes count, i.e., severer parakeratosis.
The samples to be evaluated of the glycine derivatives and the salts thereof as well as the aminosulfuric acid derivatives and the salts thereof in accordance with the invention 2 were prepared mainly 3 weight % solution (including 30 weight % ethanol, excluding Hydantoic acid and ACES which include 20 weight % ethanol). pH was regulated by using hydrochloric acid or sodium hydroxide to be 7.0 to 7.5. When the solubility was low, then the solution was prepared accordingly.
100 microliters of 10 weight % oleic acid (solvent: ethanol) was applied to the back of Hairless mice (HR-1, Hoshino laboratory animals) Thereafter, 100 microliters of sample solution (glycine derivatives in accordance with the invention 2) was applied thereon at each time. This procedure was repeated for 3 days. The day after the application, the skin condition of the backs was observed by using a CCD camera to evaluate the skin roughness (stratified ablation of the skin surface stratum corneum and red spots). The skin condition was evaluated visually, with scoring the skin condition of control application to 2.0 and the skin condition of no roughness to 0.0, in a 0.25 point step in response to the skin condition. At the same time, the skin surface stratum corneum of the back of hairless mice was peeled off by using a tape for staining the nucleus with haematoxylin to observe the degrees of parakeratosis and evaluate in 0.25 step in the range from 1.0 to 3.0. The higher evaluation points indicates the larger number of parakeratotic corneocytes count, i.e., severer parakeratosis.

[2] = test system: pores on the cheek of healthy male subjects; assay: Effect of shrinking human pores: replica evaluation of cheek pores; assay type: in vivo; conditions: for Replica Evaluation (mean of n = 5), difference of pore size score before/after application: twice a day for a month, cheek; for effect of pore-shrinking (conclusion from Table 5) / pore-shrinking effect (conclusion from Table 2): human cheek; for effect of pore-shrinking (conclusion from Table 5): fifth embodiment; for pore-shrinking effect (conclusion from Table 2): second embodiment
Protocol: An experiment of application of sample twice a day for a month on the cheek of healthy male subjects, was conducted with each group consisting of 5 individuals. 3 weight % solution of the glycine derivatives in accordance with the invention 1 (including 15 weight % of ethanol) was prepared. pH was regulated to the range between 7.0 and 7.5, by using hydrochloric acid and/or sodium hydroxide. Control was 15 weight % ethanol solution. Said 3 weight % solution was applied to one side and said control solution was applied to the other side.
Replicas were prepared prior to and after the application to observe the change of form of pores in the same spot under a three-dimensional laser scanning microscope. The size of pores was evaluated visually 13 steps from 1 to 13 (larger number indicates larger pore size), and the difference between the resulted evaluations before/after the application experiment was then calculated to study the effectiveness of each specimen.
An experiment of application of sample twice a day for a month on the cheek of healthy male subjects, was conducted with each group consisting of 5 individuals. 3 weight % solution of the glycine derivatives and the salts thereof as well as the aminosulfuric acid derivatives and the salts thereof in accordance with the invention 2 (including 15 weight % of ethanol), 2 weight % solution of ACES (including 15 weight % of ethanol), 3 weight % solution of CAPS (including 15 weight % of ethanol), and 3 weight % solution of CAPSO (including 15 weight % of ethanol) were prepared. pH was regulated to the range between 7.0 and 7.5, by using hydrochloric acid and/or sodium hydroxide. 15 weight % ethanol solution was used as control. Said sample solutions was applied to one side, and said control solution was applied to the other side.

[3] = test system: skin roughness caused by oleic acid on the back of hairless mice; assay: Inhibitory effect on skin roughness by the application of oleic acid (TEWL value); assay type: in vivo, hairless mice (HR-1); set-up: ΔTEWL: unit not given here; conditions: for decrease of delta-TEWL value as compared to the control solution (conclusion from Table 6): hairless mice, oleic acid, seventh embodiment; for ΔTEWL: after 10 weight % oleic acid, 3 days, four mice per group, control 12.0
Protocol: To study the inhibitory effect on the skin roughness by the application of oleic acid by the glycine derivatives and the salts thereof as well as the aminosulfuric acid derivatives and the salts thereof in accordance with the invention 2, the […] (TEWL value) before and after the application was measured to compare the difference therebetween with the value of control (control solution) in order to determine the effect. The preparation of samples and the application procedure were in accordance with the embodiment 4. The TEWL value was measured by means of TEWA meter TM210 (Courage+Khazaka Inc.).
100 microliters of 10 weight % oleic acid (solvent: ethanol) was applied to the back of hairless mice (HR-1, four in each group). Thereafter, 100 microliters of sample solutions (glycine derivatives and the salts thereof as well as the aminosulfuric acid derivatives and the salts thereof) in accordance with the invention 2 were applied at each time. This procedure was repeated for 3 days. The day after the application, TEWL value of the back of mice was measured and the values were averaged. The larger delta-TEWL value indicates severer aggravation of skin roughness.

[4] = Table 4, sample 3 weight % in aqueous 30 weight % ethanol (hydantoic acid: 20 weight % ethanol), range 1.0 to 3.0, higher = severer
[5] = Table 4, sample 3 weight % in aqueous 30 weight % ethanol (hydantoic acid: 20 weight % ethanol)
[6] = Table 5, 3.0 weight % solution (15 weight % ethanol), control 0.3
[7] = sample 3 weight %, larger = severer roughness
[8] = sample 3 weight % in aqueous 30 weight % ethanol, after 10 weight % oleic acid, 3 days, range 1.0 to 3.0, higher = severer
[9] = sample 3 weight % in aqueous 30 weight % ethanol, after 10 weight % oleic acid, 3 days
[10] = 3 weight % solution (15 weight % ethanol), 13 steps, larger = larger pore, control 0.2

Compound	Evaluation Parakeratosis (mean of 4 mice) [1, 4]	Evaluation Visual (mean of 4 mice), skin roughness [1, 5]	effect of inhibiting parakeratosis (conclusion from Table 4) [1]	Replica Evaluation (mean of n = 5), difference of pore size score before/after application [2, 6]	effect of pore-shrinking (conclusion from Table 5) [2]	decrease of delta-TEWL value as compared to the control solution (conclusion from Table 6) [3]	ΔTEWL [3, 7]	effect of inhibiting parakeratosis (conclusion from Table 1) [1]	Evaluation Parakeratosis (mean of 4 mice) [1, 8]	Evaluation Visual (mean of 4 mice), skin roughness [1, 9]	Replica Evaluation (mean of n = 5), difference of pore size score before/after application [2, 10]	pore-shrinking effect (conclusion from Table 2) [2]	Evaluation Parakeratosis (mean of 4 mice) ([1]; Table 4, sample 1 weight % in aqueous 30 weight % ethanol (ACES: 20 weight % ethanol), range 1.0 to 3.0)	Evaluation Visual (mean of 4 mice), skin roughness ([1]; Table 4, sample 1 weight % in aqueous 30 weight % ethanol (ACES: 20 weight % ethanol))	Replica Evaluation (mean of n = 5), difference of pore size score before/after application ([2]; Table 5, 2.0 weight % solution (15 weight % ethanol), control 0.3)	ΔTEWL ([3]; sample 1 weight %)
O=S(=O)(O)CCCNC1CCCCC1 [CAPS, 3-(cyclohexyl-amino)propane sulfonic acid]	1.2	1.3	have the effect of inhibiting parakeratosis	−1.4	demonstrated the effect of pore-shrinking	significant decrease of delta-TEWL value	8.1									
O=C(O)CNc1ccccc1 [N-phenylglycine]	1.2	1.3	have the effect of inhibiting parakeratosis	−1.0	demonstrated the effect of pore-shrinking	significant decrease of delta-TEWL value	7.9									
O=S(=O)(O)CC(O)CNC1CCCCC1 (stereo not shown) [CAPSO, 3-(cyclohexyl-amino)-2-hydroxy-propane-sulfonic acid]	1.1	1.3	have the effect of inhibiting parakeratosis	−1.6	demonstrated the effect of pore-shrinking	significant decrease of delta-TEWL value	7.9									
CC(=O)N[C@@H](CCC(=O)O)C(=O)O [N-acetyl-L-glutamic acid]								have the effect of inhibiting parakeratosis	1.2	1.2	−0.8	pore-shrinking effect was observed				
NCCC(=O)O [beta-alanine]								have the effect of inhibiting parakeratosis	1.5	1.6	−0.9	pore-shrinking effect was observed				
NC(=O)NCC(=O)O [hydantoic acid]	1.3	1.4	have the effect of inhibiting parakeratosis	−0.8	demonstrated the effect of pore-shrinking	significant decrease of delta-TEWL value	8.0									
NC(=O)CNCCS(=O)(=O)O [ACES, N-(2-acetamide)-2-aminoethanesulfonic acid]			have the effect of inhibiting parakeratosis		demonstrated the effect of pore-shrinking	significant decrease of delta-TEWL value							1.2	1.4	−1.5	6.9
CN(CC(=O)O)C(=O)CN [glycyl-sarcosine, glycyl sarcosine] (H-Gly-[Sar]-OH)	1.4	1.5	have the effect of inhibiting parakeratosis	−0.8	demonstrated the effect of pore-shrinking											
CNCC(=O)O [sarcosine, N-methylglycine]								have the effect of inhibiting parakeratosis	1.2	1.3	−1.3	pore-shrinking effect was observed				
